Paper PMC3111206, “Phase I study of PD 0332991, a cyclin-dependent kinase inhibitor, administered in 3-week cycles (Schedule 2/1)” (British Journal of Cancer, 2011)

Experiment: Safety assessment: adverse events and haematological toxicity graded by NCI CTCAE v3.0
Type: in vivo, human
Procedure: Safety was assessed at baseline, at regular intervals throughout the study, and within 1 week following treatment discontinuation by recording AEs, haematological and biochemical parameters, and physical status (including ECOG performance status). Adverse event severity was graded using the National Cancer Institute Common Terminology Criteria for Adverse Events, version 3.0 ([Trotti et al, 2003]). Triplicate electrocardiograms (ECGs) ∼2 min apart were taken at baseline, 3 h post-dose on days 1, 8 and 15 of cycle 1, and on day 15 of subsequent cycles for up to six cycles.

[1] = 200 mg QD, cycle 1, 20 patients
[2] = After cycle 1, all cohorts combined (N=33)
[3] = Cycle 1, all cohorts combined (N=33)

SMILES: CC(=O)c1c(C)c2cnc(Nc3ccc(N4CCNCC4)cn3)nc2n(C2CCCC2)c1=O [PD 0332991]
- Neutropenia, NCICTCAE Grade 0 [1]: 11 n
- Neutropenia, NCICTCAE Grade 1 [1]: 0 n
- Neutropenia, NCICTCAE Grade 2 [1]: 3 n
- Neutropenia, NCICTCAE Grade 3 [1]: 6 n
- Neutropenia, NCICTCAE Grade 4 [1]: 0 n
- Patients with treatment interrupted following treatment-related AEs (200 mg QD, during cycle 1): eight
- Neutropenia, NCICTCAE Grade 0 (225 mg QD, cycle 1, 6 patients): 3 n
- Neutropenia, NCICTCAE Grade 1 (225 mg QD, cycle 1, 6 patients): 0 n
- Neutropenia, NCICTCAE Grade 2 (225 mg QD, cycle 1, 6 patients): 0 n
- Neutropenia, NCICTCAE Grade 3 (225 mg QD, cycle 1, 6 patients): 2 n
- Neutropenia, NCICTCAE Grade 4 (225 mg QD, cycle 1, 6 patients): 1 n
- Treatment-related Alopecia, All grades [2]: 2 (6) n (%)
- Treatment-related Alopecia, Grade 3 [2]: 0 n (%)
- Treatment-related Anorexia, All grades [2]: 3 (9) n (%)
- Treatment-related Anorexia, Grade 3 [2]: 0 n (%)
- Treatment-related Chills, All grades [2]: 2 (6) n (%)
- Treatment-related Chills, Grade 3 [2]: 0 n (%)
- Treatment-related Constipation, All grades [2]: 3 (9) n (%)
- Treatment-related Constipation, Grade 3 [2]: 0 n (%)
- Treatment-related Cough, All grades [2]: 2 (6) n (%)
- Treatment-related Cough, Grade 3 [2]: 0 n (%)
- Treatment-related Diarrhoea, All grades [2]: 10 (30) n (%)
- Treatment-related Diarrhoea, Grade 3 [2]: 0 n (%)
- Treatment-related Dyspnea, All grades [2]: 1 (3) n (%)
- Treatment-related Dyspnea, Grade 3 [2]: 0 n (%)
- Treatment-related Epistaxis, All grades [2]: 4 (12) n (%)
- Treatment-related Epistaxis, Grade 3 [2]: 0 n (%)
- Treatment-related Fatigue, All grades [2]: 10 (30) n (%)
- Treatment-related Fatigue, Grade 3 [2]: 1 (3) n (%)
- Treatment-related Flatulence, All grades [2]: 3 (9) n (%)
- Treatment-related Flatulence, Grade 3 [2]: 0 n (%)
- Treatment-related Mucosal inflammation, All grades [2]: 3 (9) n (%)
- Treatment-related Mucosal inflammation, Grade 3 [2]: 0 n (%)
- Treatment-related Muscular weakness, All grades [2]: 2 (6) n (%)
- Treatment-related Muscular weakness, Grade 3 [2]: 0 n (%)
- Treatment-related Nausea, All grades [2]: 5 (15) n (%)
- Treatment-related Nausea, Grade 3 [2]: 1 (3) n (%)
- Treatment-related Peripheral oedema, All grades [2]: 2 (6) n (%)
- Treatment-related Peripheral oedema, Grade 3 [2]: 0 n (%)
- Treatment-related Pyrexia, All grades [2]: 2 (6) n (%)
- Treatment-related Pyrexia, Grade 3 [2]: 0 n (%)
- Treatment-related Rash, All grades [2]: 2 (6) n (%)
- Treatment-related Rash, Grade 3 [2]: 0 n (%)
- Treatment-related Vomiting, All grades [2]: 2 (6) n (%)
- Treatment-related Vomiting, Grade 3 [2]: 1 (3) n (%)
- Treatment-related Alopecia, All grades [3]: 0 n (%)
- Treatment-related Alopecia, Grade 3 [3]: 0 n (%)
- Treatment-related Anorexia, All grades [3]: 1 (3) n (%)
- Treatment-related Anorexia, Grade 3 [3]: 0 n (%)
- Treatment-related Chills, All grades [3]: 0 n (%)
- Treatment-related Chills, Grade 3 [3]: 0 n (%)
- Treatment-related Constipation, All grades [3]: 4 (12) n (%)
- Treatment-related Constipation, Grade 3 [3]: 0 n (%)
- Treatment-related Cough, All grades [3]: 0 n (%)
- Treatment-related Cough, Grade 3 [3]: 0 n (%)
- Treatment-related Diarrhoea, All grades [3]: 6 (18) n (%)
- Treatment-related Diarrhoea, Grade 3 [3]: 0 n (%)
- Treatment-related Dyspnea, All grades [3]: 3 (9) n (%)
- Treatment-related Dyspnea, Grade 3 [3]: 0 n (%)
- Treatment-related Epistaxis, All grades [3]: 0 n (%)
- Treatment-related Epistaxis, Grade 3 [3]: 0 n (%)
- Treatment-related Fatigue, All grades [3]: 11 (33) n (%)
- Treatment-related Fatigue, Grade 3 [3]: 0 n (%)
- Treatment-related Flatulence, All grades [3]: 0 n (%)
- Treatment-related Flatulence, Grade 3 [3]: 0 n (%)
- Treatment-related Mucosal inflammation, All grades [3]: 0 n (%)
- Treatment-related Mucosal inflammation, Grade 3 [3]: 0 n (%)
- Treatment-related Muscular weakness, All grades [3]: 0 n (%)
